# Source: patent US20250230173A1, “SALT FORMS OF AN AXL INHIBITOR” (Arcus Biosciences, Inc., priority 2023, published 2025)
# Marks after values point to notes of the source that are not given here.
# Experiments:
# Format in all cases: physicochemical
# [1] = Competitive slurry of 2-Napsylate Form I and Form VI at different water activities
# Procedure: To determine the impact of water activity on 2-Napsylate Form VI and 2-Napsylate Form I, a series of competitive slurry experiments were carried out at different water activities in THF/water and ACN/water solvent systems at RT and 55° C. Suspensions of 2-Napsylate Form I at each condition were made and allowed to equilibrate for 2 h followed by addition of ˜5 mg of Form VI with stirring.
# [2] = Stability of freebase Compound (I) in amorphous form, HPLC purity on storage
# Procedure: (§1) HPLC analysis was performed with an Agilent HPLC 1260 series instrument.
# The stability of the freebase amorphous form of Compound (I), for example, as prepared in Example 1, was assessed by High Performance Liquid Chromatography (HPLC). […] Freebase Compound (I) in amorphous form was added to 5 separate vials. Each vial was sealed and stored for a period of 5 days at 20° C., 40° C., 60° C., 80° C., and 100° C., respectively. Purity was assessed by HPLC initially, and after 1, 3, and 5 days of storage.
# [3] = Stability study of selected solid forms, XRPD after 7 days of storage
# Source text: XRPD diffractograms were collected with a Bruker, D2 Phaser or Panalytical Empyrean X-ray diffractometer. Diffractograms can be read by one of skill in the art, for example, to determine if a chemical sample is the substantially the same, different, or represents a mixture of forms. When a diffractogram is “substantially in accordance” as another diffractogram, a person of skill in the art would regard the samples resulting in the two diffractograms as the same form or same mixture of forms, taking into account minor variations for instrumentation, conditions, and the like.
# A stability study comparing amorphous freebase Compound I, Freebase Form II, 2-Napsylate Form I, Fumarate Form I, Succinate Form I, and Camsylate Form I was conducted. HPLC measurements were taken after 7 days of storage at the indicated conditions.
# [4] = Stability study of selected solid forms, HPLC purity after 7 days of storage
# [5] = Stability of amorphous salt forms of Compound (I), HPLC purity loss on storage; conditions: for HPLC Purity Loss on Day 14 (%): 14 days at 40° C., 75% RH; for HPLC Purity Loss (%): stored at RT for 10 days under ambient humidity (~75% RH), purity on day 3 minus purity on day 10
# Procedure: as §1
# The stability of various amorphous salt forms of Compound (I) was also assessed. The salt forms, in general, were prepared by suspending Compound (I) in a suitable solvent at ambient temperature and adding the corresponding acid to the mixture. The mixtures were allowed to stir until a solution was formed, filtered to remove any trace solids, and the resulting filtrate lyophilized to access the salts as solids. Characterization by XRPD established that all salt forms were amorphous. […]
# [6] = Form conversion of 2-Napsylate crystalline forms on vacuum drying or in slurry (XRPD); conditions: drying at 40° C. under vacuum (overnight)
# [7] = 7 days, 2° C., listed as Amorphous Freebase
# [8] = 7 days, 25° C., listed as Amorphous Freebase
# [9] = 7 days, 40° C. / 75% RH, listed as Amorphous Freebase
# [10] = T0, listed as Amorphous Freebase
smiles,measurement,setting,value
Cc1cccnc1-c1ccc(-c2n[nH]c3ncc(-c4ccc5c(c4)CC[C@@H](N4C6COCC4C6)CC5)cc23)nc1,2-Napsyalte Crystal Form,"[1]; 55° C., H2O, 1 w",Gel Formation
same,2-Napsyalte Crystal Form,"[1]; 55° C., H2O, 2 d",Gel Formation
same,2-Napsyalte Crystal Form,"[1]; 55° C., THF, 1 w",Form I (majorly)
same,2-Napsyalte Crystal Form,"[1]; 55° C., THF, 2 d",Form VI (majorly)
same,2-Napsyalte Crystal Form,"[1]; 55° C., THF/H2O (aw = 0.2), 1 w",Form I
same,2-Napsyalte Crystal Form,"[1]; 55° C., THF/H2O (aw = 0.2), 2 d",Form I (majorly)
same,2-Napsyalte Crystal Form,"[1]; 55° C., THF/H2O (aw = 0.4), 1 w",Gel Formation
same,2-Napsyalte Crystal Form,"[1]; 55° C., THF/H2O (aw = 0.4), 2 d",Gel Formation
same,2-Napsyalte Crystal Form,"[1]; 55° C., THF/H2O (aw = 0.6), 1 w",Gel Formation
same,2-Napsyalte Crystal Form,"[1]; 55° C., THF/H2O (aw = 0.6), 2 d",Gel Formation
same,2-Napsyalte Crystal Form,"[1]; 55° C., THF/H2O (aw = 0.8), 1 w",Gel Formation
same,2-Napsyalte Crystal Form,"[1]; 55° C., THF/H2O (aw = 0.8), 2 d",Gel Formation
same,2-Napsylate Crystal Form,"[1]; RT, ACN, 1 d",Form I
same,2-Napsylate Crystal Form,"[1]; RT, ACN/H2O (aw = 0.2), 1 d",Form I
same,2-Napsylate Crystal Form,"[1]; RT, ACN/H2O (aw = 0.4), 1 d",Form I
same,2-Napsylate Crystal Form,"[1]; RT, ACN/H2O (aw = 0.6), 1 d",Form I
same,2-Napsylate Crystal Form,"[1]; RT, ACN/H2O (aw = 0.8), 1 d",Gel Formation
same,2-Napsyalte Crystal Form,"[1]; RT, H2O, 1 w",Form IX
same,2-Napsylate Crystal Form,"[1]; RT, H2O, 1 d (ACN series)",Form I
same,2-Napsyalte Crystal Form,"[1]; RT, H2O, 2 d",Form I
same,2-Napsyalte Crystal Form,"[1]; RT, THF, 1 w",Form I (majorly)
same,2-Napsyalte Crystal Form,"[1]; RT, THF, 2 d",Form VI (majorly)
same,2-Napsyalte Crystal Form,"[1]; RT, THF/H2O (aw = 0.2), 1 w",Form I (majorly)
same,2-Napsyalte Crystal Form,"[1]; RT, THF/H2O (aw = 0.2), 2 d",Form I (majorly)
same,2-Napsyalte Crystal Form,"[1]; RT, THF/H2O (aw = 0.4), 1 w",Gel Formation
same,2-Napsyalte Crystal Form,"[1]; RT, THF/H2O (aw = 0.4), 2 d",Gel Formation
same,2-Napsyalte Crystal Form,"[1]; RT, THF/H2O (aw = 0.6), 1 w",Gel Formation
same,2-Napsyalte Crystal Form,"[1]; RT, THF/H2O (aw = 0.6), 2 d",Gel Formation
same,2-Napsyalte Crystal Form,"[1]; RT, THF/H2O (aw = 0.8), 1 w",Gel Formation
same,2-Napsyalte Crystal Form,"[1]; RT, THF/H2O (aw = 0.8), 2 d",Gel Formation
Cc1cccnc1-c1ccc(-c2n[nH]c3ncc(-c4ccc5c(c4)CC[C@@H](N4C6COCC4C6)CC5)cc23)nc1 [Amorphous Compound (I) (freebase)],HPLC purity,"[2]; 40° C., Day 0",96.45 % purity
same,HPLC purity,"[2]; 40° C., Day 1",96.12% purity
same,HPLC purity,"[2]; 40° C., Day 3",95.87% purity
same,HPLC purity,"[2]; 40° C., Day 5",95.00% purity
same,HPLC purity,"[2]; 60° C., Day 0",96.45 % purity
same,HPLC purity,"[2]; 60° C., Day 1",95.92% purity
same,HPLC purity,"[2]; 60° C., Day 3",93.06% purity
same,HPLC purity,"[2]; 60° C., Day 5",92.39% purity
same,HPLC purity,"[2]; 80° C., Day 0",96.45 % purity
same,HPLC purity,"[2]; 80° C., Day 1",95.01% purity
same,HPLC purity,"[2]; 80° C., Day 3",91.87% purity
same,HPLC purity,"[2]; 80° C., Day 5",89.86% purity
same,HPLC purity,"[2]; 100° C., Day 0",96.45 % purity
same,HPLC purity,"[2]; 100° C., Day 1",90.13% purity
same,HPLC purity,"[2]; 100° C., Day 3",74.66% purity
same,HPLC purity,"[2]; 100° C., Day 5",68.00% purity
same,HPLC purity,"[2]; r.t., Day 0",96.45 % purity
same,HPLC purity,"[2]; r.t., Day 1",96.23% purity
same,HPLC purity,"[2]; r.t., Day 3",96.01% purity
same,HPLC purity,"[2]; r.t., Day 5",96.03% purity
same,Decomposition on storage (HPLC),"[2]; sealed vials, 5 days at 20° C., 40° C., 60° C., 80° C., 100° C.",underwent decomposition
same,XRPD (solid form),[3]; [7],Amorphous
same,XRPD (solid form),[3]; [8],Amorphous
same,XRPD (solid form),[3]; [9],Amorphous
same,XRPD (solid form),[3]; [10],Amorphous
same,HPLC Purity (A %),[4]; [7],97.68 A %
same,HPLC Purity (A %),[4]; [8],97.58 A %
same,HPLC Purity (A %),[4]; [9],96.88 A %
same,HPLC Purity (A %),[4]; [10],97.42 A %
Cc1cccnc1-c1ccc(-c2n[nH]c3ncc(-c4ccc5c(c4)CC[C@@H](N4C6COCC4C6)CC5)cc23)nc1 [Benzene Sulfonic],HPLC Purity Loss on Day 14 (%),[5],3.4%
Cc1cccnc1-c1ccc(-c2n[nH]c3ncc(-c4ccc5c(c4)CC[C@@H](N4C6COCC4C6)CC5)cc23)nc1 [Benzoate],HPLC Purity Loss (%),[5],3.0* %
Cc1cccnc1-c1ccc(-c2n[nH]c3ncc(-c4ccc5c(c4)CC[C@@H](N4C6COCC4C6)CC5)cc23)nc1 [Camsylate Form I],XRPD (solid form),"[3]; 7 days, 2° C.",Form I
same,XRPD (solid form),"[3]; 7 days, 25° C.",Form I
same,XRPD (solid form),"[3]; 7 days, 40° C. / 75% RH",Decreased
same,XRPD (solid form),[3]; T0,Form I
same,HPLC Purity (A %),"[4]; 7 days, 2° C.",99.69 A %
same,HPLC Purity (A %),"[4]; 7 days, 25° C.",99.68 A %
same,HPLC Purity (A %),"[4]; 7 days, 40° C. / 75% RH",99.29 A %
same,HPLC Purity (A %),[4]; T0,99.69 A %
Cc1cccnc1-c1ccc(-c2n[nH]c3ncc(-c4ccc5c(c4)CC[C@@H](N4C6COCC4C6)CC5)cc23)nc1 [Chloride],HPLC Purity Loss on Day 14 (%),[5],1.5%
same,HPLC Purity Loss (%),[5],6.6* %
Cc1cccnc1-c1ccc(-c2n[nH]c3ncc(-c4ccc5c(c4)CC[C@@H](N4C6COCC4C6)CC5)cc23)nc1 [Citrate],HPLC Purity Loss on Day 14 (%),[5],14.2%
Cc1cccnc1-c1ccc(-c2n[nH]c3ncc(-c4ccc5c(c4)CC[C@@H](N4C6COCC4C6)CC5)cc23)nc1 [Form V],Crystal form after drying,[6],Form VII after
Cc1cccnc1-c1ccc(-c2n[nH]c3ncc(-c4ccc5c(c4)CC[C@@H](N4C6COCC4C6)CC5)cc23)nc1 [Form X],Crystal form after drying,[6],amorphous after
Cc1cccnc1-c1ccc(-c2n[nH]c3ncc(-c4ccc5c(c4)CC[C@@H](N4C6COCC4C6)CC5)cc23)nc1 [Freebase Form II],XRPD (solid form),"[3]; 7 days, 25° C.",Form II
same,XRPD (solid form),"[3]; 7 days, 40° C. / 75% RH",Form II
same,XRPD (solid form),"[3]; 7 days, 60° C.",Form I
same,XRPD (solid form),[3]; T0,Form II
same,HPLC Purity (A %),"[4]; 7 days, 25° C.",99.44 A %
same,HPLC Purity (A %),"[4]; 7 days, 40° C. / 75% RH",99.36 A %
same,HPLC Purity (A %),"[4]; 7 days, 60° C.",99.22 A %
same,Chemical and physical stability compared to the other forms tested,[4]; Example 6 stability study,better chemical and physical stability
same,HPLC Purity (A %),[4]; T0,100.0 A %
Cc1cccnc1-c1ccc(-c2n[nH]c3ncc(-c4ccc5c(c4)CC[C@@H](N4C6COCC4C6)CC5)cc23)nc1 [Fumarate Form I],XRPD (solid form),"[3]; 7 days, 2° C.",Form I
same,XRPD (solid form),"[3]; 7 days, 25° C.",Form I
same,XRPD (solid form),"[3]; 7 days, 40° C. / 75% RH",Form I
same,XRPD (solid form),[3]; T0,Form I
same,HPLC Purity (A %),"[4]; 7 days, 2° C.",98.01 A %
same,HPLC Purity (A %),"[4]; 7 days, 25° C.",97.94 A %
same,HPLC Purity (A %),"[4]; 7 days, 40° C. / 75% RH",95.29 A %
same,HPLC Purity (A %),[4]; T0,97.84 A %
Cc1cccnc1-c1ccc(-c2n[nH]c3ncc(-c4ccc5c(c4)CC[C@@H](N4C6COCC4C6)CC5)cc23)nc1 [Succinate Form I],XRPD (solid form),"[3]; 7 days, 2° C.",Form I
same,XRPD (solid form),"[3]; 7 days, 25° C.",Form I
same,XRPD (solid form),"[3]; 7 days, 40° C. / 75% RH",Form I
same,XRPD (solid form),[3]; T0,Form I
same,HPLC Purity (A %),"[4]; 7 days, 2° C.",97.74 A %
same,HPLC Purity (A %),"[4]; 7 days, 25° C.",98.22 A %
same,HPLC Purity (A %),"[4]; 7 days, 40° C. / 75% RH",89.76 A %
same,HPLC Purity (A %),[4]; T0,98.09 A %
